Values after ≈ are worked out from the molar mass of the structure shown.

Data set [1] can be described thus: Concentration of compound in plasma and lung of bleomycin fibrotic mice. Type of data set: in vivo. To be noted: 1 hour after final administration; pirfenidone 100 mpk, Compound 1 10-100 mpk PO. The method, then:
The amounts of the compound present in the plasma and lung of each of the sacrificed mice (finally administered with each compound at 1 hour before sacrifice) were measured. […] If it is attempted to formulate the compound of the present invention in various manners, it is expected that the compound of the present invention can effectively treat fibrosis even at lower concentrations.

For the next data set, the system named is C57BL/6 mice. The data set is described as follows: Bleomycin-induced pulmonary fibrosis animal model. The class given is in vivo. From the text:
5-week-old male C57BL/6 mice (weighed 18.2 to 20.5 g) (KOATECH, Korea) were used as experimental animals and divided into several groups, each consisting of 5 animals.
The experimental animals were housed in a housing box having a size of 369 L×156 W×132H (mm) (EU, USA, UK GL compliance) made of a polysulfone material in a SPF (Specific Pathogen Free) and BSL (Bio Safety Level) 2 grade facility. The number of animals in each housing box was 2 to 3 during the period of quarantine and acclimatization and was also 2 to 3 during the experimental period, and the housing conditions were set to a temperature of 22±2° C., a relative humidity of 50.0±15.0%, a ventilation cycle of 10 to 20 times/hr, a light-dark cycle (a photoperiod) of 12 hr/day (07:00 to 19:00), and an illumination intensity of 150 to 300 Lux.
Pulmonary fibrosis was induced by injecting a bleomycin solution directly into the lungs via the trachea according to the intratracheal instillation (IT) method of Kremer, Laxer and Berkman et al. Specifically, C57BL/6J mice were anesthetized through inhalation with 70% N2O and 30% O2 gas and 1.5% isoflurane, and the skin of the anterior neck thereof was excised and the organs under the muscle thereof were exposed and then carefully excised using ophthalmic surgical scissors. 50 μL of a solution of bleomycin in distilled water was injected directly into the lungs all at once via the excised organ by use of a 1 mL syringe fitted with a 19-gauge injection needle having a blunt tip. Immediately after the injection, the excised skin of the anterior neck was sutured and the mice were allowed to recover from the anesthetic, and then housed in a general housing cage. The administration of bleomycin was performed using a visual instillobot, and bleomycin-HCl 40 μg/50 μL was administered once and a pulmonary fibrosis induction period of 12 days was set.
The compound of the present invention was used after dissolution in 30% HPCD aqueous solution (Formulation Example 5), and the dose for each individual was calculated based on the recent body weight thereof. 12 Days after the administration of bleomycin, the compound of the present invention was administered once a day (5 times a week) for 2 weeks. As a control, pirfenidone which is a therapeutic agent for idiopathic pulmonary fibrosis was administered in the same manner.
On 15 days after administration of the compound, the mice were sacrificed, and then the right lung of each mouse was dissected and the weight thereof was measured. […] In particular, it is noted that the inhibitory effect of the compound in the group administered at 10 mpk was the highest compared to that in the group administered at 50 or 100 mpk and was also higher than that in the group administered with pirfenidone 100 mpk.
The amounts of hydroxyproline (HP) and collagen in the dissected right lung were measured using a known method.
Histopathology collagen morphometry of the dissected left lung tissue was performed using a known method (calculating the area of collagen in an optical image obtained by Sirius red staining of the lung tissue sample).
The pathological conditions of the left lung tissue dissected using a known method were examined by H&E and Sirius Red staining. […] In particular, it is noted that the inhibitory effect of the compound in the group administered at 10 mpk was the highest compared to that in the groups administered at other concentrations.
In order to examine the effect of each treatment in this Experiment on the liver, the liver of each of the sacrificed mice was dissected, and the pathological conditions of the liver tissue were examined by H&E staining.

A short description of data set [2]: Solubility in phosphate buffer (pH 7.4). To be noted: phosphate buffer pH 7.4, 1 mg/ml added, 16 hours, HPLC-UV. As to the method: The compound of the present invention was added to phosphate buffer (pH 7.4) at a concentration of 1 mg/ml and stirred. After 16 hours, the sample was filtered through a filter, and the supernatant was analyzed by HPLC-UV, thereby determining the content of compound dissolved.

For the next data set, the system named is STAM mice. The data set is described as follows: Non-alcoholic steatohepatitis animal model (STAM mice), NAFLD activity score. The class given is in vivo. The following applies: 30 mpk oral. As to the method:
STAM mice (SMC Laboratories, Inc., Japan), which are non-alcoholic steatohepatitis animal models, were used as experimental animals. These animal models were administered with streptozotocin immediately after birth, and fed with high-fat-diet after 3 weeks. Then, in the mouse model, non-alcoholic steatohepatitis occurred at 6 to 9 weeks, and liver fibrosis, cirrhosis and liver cancer occurred within 9 to 12 weeks.
Over 6 to 9 weeks after administration of streptozotocin, the compound of the present invention, dissolved in a mixture solution of Tween80 and 0.5% CMC aqueous solution (1:99 (v/v)) (Formulation Example 2), was orally administered to the animal models once a day (five times a week). As controls, telmisartan and OCA (obeticholic acid) were administered in the same manner.
At […] after administration of streptozotocin (a time point after 3-week administration of the compound), the mice were sacrificed, the liver of each mouse was dissected, the invasion of inflammatory cells was observed by […] of the liver tissue, and fibrosis of the liver tissue was observed by Sirius Red staining (see FIG. 42). In addition, the degrees of inflammation, fibrosis, liver cell ballooning and adipose accumulation observed were measured, data integration was performed, and the NAFLD (nonalcoholic fatty liver disease) activity score was statistically processed by t-test.

As for `Cc1ccc(=O)n(-c2ccccc2)c1` [Pirfenidone, reference compound], in data set [1], the “concentration of the compound in the lung” value is listed as “high” and the “concentration of the compound in the plasma” value was “high”. In addition, the “Protection Collagen %” value in the data set with C57BL/6 mice (100 mpk PO) came out at 34%. Further, the “Mean Collagen % (histopathology collagen morphometry, left lung)” value in the data set with C57BL/6 mice (100 mpk PO, Sirius red) is 4.1%. The “pathological condition of liver tissue, H&E staining” value in the data set with C57BL/6 mice (bleomycin mice, 100 mpk) is reported as “showed hepatotoxic symptoms”.

`CC/C(=C(/CC)c1ccc(O)cc1)c1ccc(O)cc1` [Diethyl stilbesterol, reference compound]: the Solubility (as a rule, how much of the substance goes into solution per volume) in data set [2] was 4.50 µg/mL (≈ 16.8 µM).

Regarding `CCCc1nc2c(C)cc(-c3nc4ccccc4n3C)cc2n1Cc1ccc(-c2ccccc2C(=O)O)cc1` [telmisartan, reference compound], the “NAFLD activity score (t-test)” value with STAM mice is recorded as “statistically significant anti-NASH effects”.

The values above are taken from patent US10370364B1, “Substituted chromenes for treatment of fibrosis or non-alcoholic steatohepatitis” (OSTEONEUROGEN INC., priority 2018, dated 2019).
